Legend:
Settings in all cases: Compound concentration 1.0 uM
[1] = biological target: Adhesion G protein-coupled receptor F4 (Homo sapiens) (UniProt Q8IZF3); assay: RLU of GPR115 at 1.0 µM in the […] PRESTO-Tango GPCRome screen
[2] = biological target: Endothelin-1 receptor (Homo sapiens) (UniProt P25101); assay: RLU of EDNRA at 1.0 µM in the […] PRESTO-Tango GPCRome screen
[3] = biological target: Oxoeicosanoid receptor 1 (Homo sapiens) (UniProt Q8TDS5); assay: RLU of OXER1 at 1.0 µM in the […] PRESTO-Tango GPCRome screen
Oxoeicosanoid receptor 1 (Homo sapiens), sequence (Q8TDS5 whole entry): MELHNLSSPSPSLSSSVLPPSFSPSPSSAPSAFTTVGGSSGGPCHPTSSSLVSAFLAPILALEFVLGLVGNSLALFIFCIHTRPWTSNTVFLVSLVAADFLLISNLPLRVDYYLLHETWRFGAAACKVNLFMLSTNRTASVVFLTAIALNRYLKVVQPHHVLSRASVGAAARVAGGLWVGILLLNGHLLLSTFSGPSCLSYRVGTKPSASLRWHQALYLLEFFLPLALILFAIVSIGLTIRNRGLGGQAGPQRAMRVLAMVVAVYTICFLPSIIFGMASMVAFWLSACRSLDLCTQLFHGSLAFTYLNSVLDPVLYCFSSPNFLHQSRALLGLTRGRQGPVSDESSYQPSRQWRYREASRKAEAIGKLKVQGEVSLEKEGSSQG

[4] = biological target: Free fatty acid receptor 1 (Homo sapiens) (UniProt O14842); assay: RLU of FFA1 (GPR40) at 1.0 µM in the […] PRESTO-Tango GPCRome screen
[5] = biological target: Kappa-type opioid receptor (Homo sapiens) (UniProt P41145); assay: RLU of OPRK1 at 1.0 µM in the […] PRESTO-Tango GPCRome screen
[6] = biological target: Histamine H3 receptor (Homo sapiens) (UniProt Q9Y5N1); assay: RLU of HRH3 at 1.0 µM in the Aequorin PRESTO-Tango GPCRome screen
[7] = biological target: Alpha-2C adrenergic receptor (Homo sapiens) (UniProt P18825); assay: RLU of ADRA2C at 1.0 µM in the […] PRESTO-Tango GPCRome screen
[8] = biological target: Cysteinyl leukotriene receptor 2 (Homo sapiens) (UniProt Q9NS75); assay: RLU of CYSLTR2 at 1.0 µM in the […] PRESTO-Tango GPCRome screen
[9] = biological target: Muscarinic acetylcholine receptor M1 (Homo sapiens) (UniProt P11229); assay: RLU of CHRM1 at 1.0 µM in the […] PRESTO-Tango GPCRome screen
Muscarinic acetylcholine receptor M1 (Homo sapiens), sequence (P11229 whole entry): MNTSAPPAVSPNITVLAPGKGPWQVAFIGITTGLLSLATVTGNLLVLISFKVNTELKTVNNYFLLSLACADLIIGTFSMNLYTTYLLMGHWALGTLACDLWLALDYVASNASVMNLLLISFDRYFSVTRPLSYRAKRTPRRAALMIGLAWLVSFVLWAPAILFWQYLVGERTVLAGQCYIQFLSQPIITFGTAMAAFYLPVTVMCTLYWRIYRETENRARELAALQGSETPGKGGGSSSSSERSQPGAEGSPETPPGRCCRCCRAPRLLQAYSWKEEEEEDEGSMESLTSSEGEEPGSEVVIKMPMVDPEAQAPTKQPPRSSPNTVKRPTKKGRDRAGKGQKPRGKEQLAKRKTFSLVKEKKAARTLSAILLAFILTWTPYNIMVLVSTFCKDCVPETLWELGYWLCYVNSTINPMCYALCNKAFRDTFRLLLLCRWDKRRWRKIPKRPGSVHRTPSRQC

[10] = biological target: Galanin receptor type 1 (Homo sapiens) (UniProt P47211); assay: RLU of GAL1 at 1.0 µM in the […] PRESTO-Tango GPCRome screen
[11] = biological target: Melanocortin receptor 5 (Homo sapiens) (UniProt P33032); assay: RLU of MC5R at 1.0 µM in the […] PRESTO-Tango GPCRome screen
[12] = biological target: G-protein coupled receptor 68 (Homo sapiens) (UniProt Q15743); assay: RLU of GPR68 at 1.0 µM in the […] PRESTO-Tango GPCRome screen
[13] = biological target: Muscarinic acetylcholine receptor M3 (Homo sapiens) (UniProt P20309); assay: RLU of CHRM3 at 1.0 µM in the […] PRESTO-Tango GPCRome screen
[14] = biological target: Glucose-dependent insulinotropic receptor (Homo sapiens) (UniProt Q8TDV5); assay: RLU of GPR119 at 1.0 µM in the […] PRESTO-Tango GPCRome screen
[15] = biological target: N-arachidonyl glycine receptor (Homo sapiens) (UniProt Q14330); assay: RLU of GPR18 at 1.0 µM in the […] PRESTO-Tango GPCRome screen
[16] = biological target: Probable G-protein coupled receptor 148 (Homo sapiens) (UniProt Q8TDV2); assay: RLU of GPR148 at 1.0 µM in the […] PRESTO-Tango GPCRome screen
[17] = biological target: Probable G-protein coupled receptor 152 (Homo sapiens) (UniProt Q8TDT2); assay: RLU of GPR152 at 1.0 µM in the […] PRESTO-Tango GPCRome screen
[18] = biological target: Vasopressin V1b receptor (Homo sapiens) (UniProt P47901); assay: RLU of AVPR1B at 1.0 µM in the […] PRESTO-Tango GPCRome screen
Vasopressin V1b receptor (Homo sapiens), sequence (P47901 whole entry): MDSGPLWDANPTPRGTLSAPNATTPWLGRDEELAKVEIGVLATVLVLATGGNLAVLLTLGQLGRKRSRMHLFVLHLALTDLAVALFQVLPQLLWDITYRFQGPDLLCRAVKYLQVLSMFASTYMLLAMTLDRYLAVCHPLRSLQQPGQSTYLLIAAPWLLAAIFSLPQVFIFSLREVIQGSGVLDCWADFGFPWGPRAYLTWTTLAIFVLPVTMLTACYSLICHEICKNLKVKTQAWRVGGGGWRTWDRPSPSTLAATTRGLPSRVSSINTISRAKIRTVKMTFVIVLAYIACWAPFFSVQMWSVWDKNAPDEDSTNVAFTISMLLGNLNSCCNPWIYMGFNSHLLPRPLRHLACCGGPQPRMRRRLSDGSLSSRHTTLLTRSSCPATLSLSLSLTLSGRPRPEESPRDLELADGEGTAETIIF

[19] = biological target: Vasoactive intestinal polypeptide receptor 1 (Homo sapiens) (UniProt P32241); assay: RLU of VIPR1 at 1.0 µM in the […] PRESTO-Tango GPCRome screen
[20] = biological target: G-protein coupled receptor 87 (Homo sapiens) (UniProt Q9BY21); assay: RLU of GPR87 at 1.0 µM in the […] PRESTO-Tango GPCRome screen
[21] = biological target: Putative adhesion G protein-coupled receptor F2P (Homo sapiens) (UniProt Q8IZF7); assay: RLU of GPR111 at 1.0 µM in the […] PRESTO-Tango GPCRome screen
[22] = biological target: Prostaglandin E2 receptor EP3 subtype (Homo sapiens) (UniProt P43115); assay: RLU of PTGER3 at 1.0 µM in the […] PRESTO-Tango GPCRome screen
[23] = biological target: G-protein coupled receptor 15 (Homo sapiens) (UniProt P49685); assay: RLU of GPR15 at 1.0 µM in the […] PRESTO-Tango GPCRome screen
[24] = biological target: Adhesion G protein-coupled receptor A2 (Homo sapiens) (UniProt Q96PE1); assay: RLU of GPR124 at 1.0 µM in the […] PRESTO-Tango GPCRome screen
Adhesion G protein-coupled receptor A2 (Homo sapiens), sequence (Q96PE1 whole entry): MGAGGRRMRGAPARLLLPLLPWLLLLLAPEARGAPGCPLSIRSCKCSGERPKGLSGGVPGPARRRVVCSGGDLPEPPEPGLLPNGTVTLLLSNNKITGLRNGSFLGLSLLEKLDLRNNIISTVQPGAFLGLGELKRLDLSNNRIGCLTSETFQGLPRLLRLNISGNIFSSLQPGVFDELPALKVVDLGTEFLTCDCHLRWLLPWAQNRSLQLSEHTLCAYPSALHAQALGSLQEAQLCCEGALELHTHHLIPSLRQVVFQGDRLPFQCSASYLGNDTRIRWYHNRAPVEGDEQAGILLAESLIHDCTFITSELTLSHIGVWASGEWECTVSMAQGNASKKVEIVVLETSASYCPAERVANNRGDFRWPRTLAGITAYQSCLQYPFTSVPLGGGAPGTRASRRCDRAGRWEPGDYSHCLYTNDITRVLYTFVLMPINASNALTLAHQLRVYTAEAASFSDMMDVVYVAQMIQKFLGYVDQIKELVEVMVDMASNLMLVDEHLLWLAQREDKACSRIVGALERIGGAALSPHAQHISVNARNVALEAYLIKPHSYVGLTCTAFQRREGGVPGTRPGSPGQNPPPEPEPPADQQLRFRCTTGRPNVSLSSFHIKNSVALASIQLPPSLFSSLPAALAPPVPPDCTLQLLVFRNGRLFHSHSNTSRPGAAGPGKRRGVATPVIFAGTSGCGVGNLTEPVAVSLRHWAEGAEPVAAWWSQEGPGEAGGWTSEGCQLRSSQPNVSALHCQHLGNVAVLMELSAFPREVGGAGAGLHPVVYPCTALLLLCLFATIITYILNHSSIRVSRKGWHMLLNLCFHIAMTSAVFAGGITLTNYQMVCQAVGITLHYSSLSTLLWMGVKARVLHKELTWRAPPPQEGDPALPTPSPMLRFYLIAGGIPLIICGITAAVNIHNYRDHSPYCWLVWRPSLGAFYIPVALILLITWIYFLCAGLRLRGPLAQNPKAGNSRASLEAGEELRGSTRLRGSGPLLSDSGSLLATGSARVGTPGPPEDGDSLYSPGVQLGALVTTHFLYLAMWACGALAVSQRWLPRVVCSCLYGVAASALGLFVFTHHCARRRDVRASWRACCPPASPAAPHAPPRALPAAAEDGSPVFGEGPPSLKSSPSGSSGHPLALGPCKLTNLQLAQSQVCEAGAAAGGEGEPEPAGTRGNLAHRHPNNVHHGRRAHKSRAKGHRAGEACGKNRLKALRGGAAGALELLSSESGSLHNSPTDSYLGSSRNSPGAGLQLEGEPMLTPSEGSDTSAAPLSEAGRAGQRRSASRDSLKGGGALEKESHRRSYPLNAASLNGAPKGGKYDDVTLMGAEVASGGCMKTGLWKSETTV

[25] = biological target: Prokineticin receptor 2 (Homo sapiens) (UniProt Q8NFJ6); assay: RLU of PK2 at 1.0 µM in the […] PRESTO-Tango GPCRome screen
Prokineticin receptor 2 (Homo sapiens), sequence (Q8NFJ6 whole entry): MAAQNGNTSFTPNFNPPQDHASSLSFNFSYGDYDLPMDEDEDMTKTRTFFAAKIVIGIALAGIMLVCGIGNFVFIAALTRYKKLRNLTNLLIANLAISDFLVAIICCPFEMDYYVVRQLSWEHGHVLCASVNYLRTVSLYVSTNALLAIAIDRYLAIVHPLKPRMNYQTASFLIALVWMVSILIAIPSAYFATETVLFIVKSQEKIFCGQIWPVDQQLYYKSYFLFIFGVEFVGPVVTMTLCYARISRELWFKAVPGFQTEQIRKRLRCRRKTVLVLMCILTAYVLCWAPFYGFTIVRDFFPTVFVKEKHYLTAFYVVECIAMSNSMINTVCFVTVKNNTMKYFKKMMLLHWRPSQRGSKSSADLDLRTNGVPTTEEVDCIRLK

[26] = biological target: C-X-C chemokine receptor type 5 (Homo sapiens) (UniProt P32302); assay: RLU of CXCR5 at 1.0 µM in the […] PRESTO-Tango GPCRome screen
C-X-C chemokine receptor type 5 (Homo sapiens), sequence (P32302 whole entry): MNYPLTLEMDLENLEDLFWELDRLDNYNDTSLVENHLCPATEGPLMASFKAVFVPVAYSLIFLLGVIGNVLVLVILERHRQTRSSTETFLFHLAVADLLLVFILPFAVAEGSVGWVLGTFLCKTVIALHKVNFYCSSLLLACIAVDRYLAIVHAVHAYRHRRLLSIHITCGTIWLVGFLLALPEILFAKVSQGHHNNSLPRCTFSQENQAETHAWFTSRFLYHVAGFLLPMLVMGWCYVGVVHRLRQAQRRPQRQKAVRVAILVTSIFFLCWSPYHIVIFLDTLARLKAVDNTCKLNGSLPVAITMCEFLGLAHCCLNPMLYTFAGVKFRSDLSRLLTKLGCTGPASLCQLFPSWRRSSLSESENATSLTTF

[27] = biological target: Mas-related G-protein coupled receptor member X4 (Homo sapiens) (UniProt Q96LA9); assay: RLU of MRGPRX4 at 1.0 µM in the […] PRESTO-Tango GPCRome screen
[28] = biological target: Metabotropic glutamate receptor 4 (Homo sapiens) (UniProt Q14833); assay: RLU of GRM4 at 1.0 µM in the Aequorin PRESTO-Tango GPCRome screen
[29] = biological target: Metabotropic glutamate receptor 5 (Homo sapiens) (UniProt P41594); assay: RLU of GRM5 at 1.0 µM in the Aequorin PRESTO-Tango GPCRome screen
Metabotropic glutamate receptor 5 (Homo sapiens), sequence (P41594 21-1212 limits assumed): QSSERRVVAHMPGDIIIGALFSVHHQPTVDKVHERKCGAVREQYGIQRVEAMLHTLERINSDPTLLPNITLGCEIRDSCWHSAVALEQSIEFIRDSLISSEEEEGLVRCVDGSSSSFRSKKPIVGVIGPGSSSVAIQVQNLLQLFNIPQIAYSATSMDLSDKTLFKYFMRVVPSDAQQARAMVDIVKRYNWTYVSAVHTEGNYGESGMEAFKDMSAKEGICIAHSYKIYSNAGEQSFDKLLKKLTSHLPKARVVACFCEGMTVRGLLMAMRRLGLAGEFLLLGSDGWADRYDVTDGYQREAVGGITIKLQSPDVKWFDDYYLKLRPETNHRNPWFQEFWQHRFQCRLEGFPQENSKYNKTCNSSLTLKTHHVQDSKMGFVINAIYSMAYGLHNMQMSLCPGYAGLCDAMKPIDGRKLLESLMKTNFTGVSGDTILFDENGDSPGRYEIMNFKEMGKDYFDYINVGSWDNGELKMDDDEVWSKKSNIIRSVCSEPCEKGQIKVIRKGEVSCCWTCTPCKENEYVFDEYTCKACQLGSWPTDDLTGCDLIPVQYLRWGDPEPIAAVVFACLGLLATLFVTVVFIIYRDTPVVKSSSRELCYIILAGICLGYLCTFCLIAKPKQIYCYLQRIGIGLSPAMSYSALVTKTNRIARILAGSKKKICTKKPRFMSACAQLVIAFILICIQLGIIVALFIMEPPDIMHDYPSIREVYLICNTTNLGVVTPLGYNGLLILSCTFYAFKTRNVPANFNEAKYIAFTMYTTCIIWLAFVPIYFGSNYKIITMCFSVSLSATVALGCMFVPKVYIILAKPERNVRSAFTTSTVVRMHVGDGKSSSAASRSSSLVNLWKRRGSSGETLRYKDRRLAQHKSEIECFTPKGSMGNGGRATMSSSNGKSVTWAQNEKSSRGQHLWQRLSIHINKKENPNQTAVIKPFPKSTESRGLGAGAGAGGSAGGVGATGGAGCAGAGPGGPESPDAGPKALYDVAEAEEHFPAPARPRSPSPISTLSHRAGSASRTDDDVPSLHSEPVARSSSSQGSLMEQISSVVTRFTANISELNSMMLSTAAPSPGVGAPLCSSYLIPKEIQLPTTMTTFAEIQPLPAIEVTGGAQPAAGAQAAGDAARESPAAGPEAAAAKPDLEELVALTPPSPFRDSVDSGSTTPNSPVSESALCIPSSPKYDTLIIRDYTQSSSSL

[30] = biological target: Hydroxycarboxylic acid receptor 2 (Homo sapiens) (UniProt Q8TDS4); assay: RLU of HCA2 at 1.0 µM in the Aequorin PRESTO-Tango GPCRome screen
Hydroxycarboxylic acid receptor 2 (Homo sapiens), sequence (Q8TDS4 whole entry): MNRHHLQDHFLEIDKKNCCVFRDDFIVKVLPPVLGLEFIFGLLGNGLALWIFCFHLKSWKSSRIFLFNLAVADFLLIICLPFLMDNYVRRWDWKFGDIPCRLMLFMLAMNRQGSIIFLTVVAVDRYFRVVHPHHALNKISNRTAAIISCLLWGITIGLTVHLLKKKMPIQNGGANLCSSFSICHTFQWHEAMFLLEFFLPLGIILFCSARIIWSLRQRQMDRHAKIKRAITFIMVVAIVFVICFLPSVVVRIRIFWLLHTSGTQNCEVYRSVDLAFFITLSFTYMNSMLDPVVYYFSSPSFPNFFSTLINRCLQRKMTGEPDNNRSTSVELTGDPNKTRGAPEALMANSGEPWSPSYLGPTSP

[31] = biological target: Gastrin/cholecystokinin type B receptor (Homo sapiens) (UniProt P32239); assay: RLU of CCKBR at 1.0 µM in the […] PRESTO-Tango GPCRome screen
[32] = biological target: Succinate receptor 1 (Homo sapiens) (UniProt Q9BXA5); assay: RLU of SUCNR1 at 1.0 µM in the […] PRESTO-Tango GPCRome screen
[33] = biological target: Sphingosine 1-phosphate receptor 5 (Homo sapiens) (UniProt Q9H228); assay: RLU of S1PR5 at 1.0 µM in the […] PRESTO-Tango GPCRome screen
[34] = biological target: Trace amine-associated receptor 6 (Homo sapiens) (UniProt Q96RI8); assay: RLU of TAAR6 at 1.0 µM in the […] PRESTO-Tango GPCRome screen

CCCCC(=O)N1CC2(C1)CN(c1ccccc1-c1nnn[nH]1)C2
RLU [1]: -283 | RLU [2]: -1160 | RLU [3]: -153 | RLU [4]: 2090 | RLU [5]: 156 | RLU [6]: -6780 | RLU [7]: 12100 | RLU [8]: -3190 | RLU [9]: -2940 | RLU [10]: -212 | RLU [11]: 481 | RLU [12]: -1790 | RLU [13]: 6260 | RLU [14]: 272 | RLU [15]: -383 | RLU [16]: 3090 | RLU [17]: -70 | RLU [18]: -688 | RLU [19]: -7190 | RLU [20]: 8750 | RLU [21]: -1360 | RLU [22]: 83.2 | RLU [23]: 1710 | RLU [24]: -2920 | RLU [25]: -566 | RLU [26]: -793 | RLU [27]: 3310 | RLU [28]: -82.8 | RLU [29]: -10100 | RLU [30]: -133 | RLU [31]: 2720 | RLU [32]: 1540 | RLU [33]: 2920 | RLU [34]: -394

Source: ChEMBL document CHEMBL5723582, “Data for DCP probe T-10430” (2024)
